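Following 48 hours of exposure in 96-well plates, responses at five concentrations were used to interpolate endpoints linearly. The concentration for full growth arrest is given as TGI.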
Tested on: HCT-15 colon
Test: NCI tumour cell line growth inhibition, 48 h

| Compound | TGI [µM] |
| --- | --- |
| CC(=O)OCc1cc(CCC(=O)NCCNc2c3ccccc3nc3ccccc23)cc(COC(C)=O)c1O[Si](C)(C)C(C)(C)C | 33.3 |
| COc1cc(Nc2cnc3cc(F)c(F)cc3n2)cc(OC)c1OC | > 100 |
| Cc1nc2ccccc2c(=O)n1NC(=O)c1ccc(CS)cc1 | > 100 |
| COc1ccc2nc3ccc(OC)cc3c(S(=O)CCCl)c2c1 (stereo unspecified) | > 20.6 |
| CNc1ccc(OC)cc1S(=O)(=O)c1ccccc1[N+](=O)[O-] | > 100 |
| CC1(CCCO)CCCCCC(C)(CCCO)C1=O (stereo unspecified) | > 100 |

Tested on: K-562 leukemia
Test: NCI tumour cell line growth inhibition, 48 h

| Compound | TGI [µM] |
| --- | --- |
| O=Cc1ccc2c(c1)CC1(C2)Cc2ccc3c(c2C1)CCC3 (stereo unspecified) | 25.6 |
| CC(=O)Nc1cc(C(=O)Nc2cc(C(=O)N3CC(CCl)c4c3cc(N)c3ccccc43)nn2C)nn1C (stereo unspecified) | 0.823 |
| O=C(O)c1n[nH]nc1Cl | > 100 |
| C=C(C)C(CC=C(C)C)CC12CC(CC=C(C)C)C(C)(C)C(CC=C(C)C)(C(=O)C(Cc3ccc(O)c(O)c3)=C1O)C2=O (stereo unspecified) | > 100 |
| NC(Cc1cccc([N+](=O)[O-])c1)C(=O)O (stereo unspecified) | > 100 |
| CCC(=O)NC(Nc1cccc(F)c1C)(C(F)(F)F)C(F)(F)F | > 100 |
| CCCCCN=Cc1c(O)c(O)c(C(C)C)c2cc(C)c(-c3c(C)cc4c(C(C)C)c(O)c(O)c(C=NCCCCC)c4c3O)c(O)c12 | 70 |
| Clc1c(Cl)c(Cl)c2nn(C3CCCO3)nc2c1Cl (stereo unspecified) | 98.3 |
| N#C/C(C(=O)Nc1ccccc1)=C(/N)N1CCOCC1 | > 100 |
| O=c1[nH]c(-c2ccc3ccccc3c2)nc2ccccc12 | > 100 |
| CS(=O)(=O)Nc1ccc(N2Cc3cnc4ccc5[nH]ccc2c5c34)cc1 | 38.7 |
| COc1ccc(C(=O)Sc2c(-c3ccccc3)c(=O)n(-c3ccccc3)c(=S)n2-c2ccccc2)cc1 | > 100 |
| COCCOCc1nc(C#N)c(N)o1 | > 100 |
| CC1=C(C#N)C(C#N)(C#N)C(NN(C)C)C1 (stereo unspecified) | 60.8 |
| CN1C(=O)N/C(=C\c2ccc(S(=O)(=O)NN)cc2)C1=O | > 100 |
| COc1nc(C(=O)NNC(=O)c2nc(OC)c3ccccc3c2-c2ccccc2)c(-c2ccccc2)c2ccccc12 | > 100 |
| CC(=O)OCc1cc(CCC(=O)NCCNc2c3ccccc3nc3ccccc23)cc(COC(C)=O)c1O[Si](C)(C)C(C)(C)C | 6.49 |
| Cc1nc2ccccc2c(=O)n1NC(=O)c1ccc(CS)cc1 | 68.1 |
| COc1ccc2nc3ccc(OC)cc3c(S(=O)CCCl)c2c1 (stereo unspecified) | > 23.6 |
| CNc1ccc(OC)cc1S(=O)(=O)c1ccccc1[N+](=O)[O-] | > 100 |
| CC1(CCCO)CCCCCC(C)(CCCO)C1=O (stereo unspecified) | > 100 |

Tested on: KM12 colon
Test: NCI tumour cell line growth inhibition, 48 h

| Compound | TGI [µM] |
| --- | --- |
| O=Cc1ccc2c(c1)CC1(C2)Cc2ccc3c(c2C1)CCC3 (stereo unspecified) | 33.1 |
| CC(=O)Nc1cc(C(=O)Nc2cc(C(=O)N3CC(CCl)c4c3cc(N)c3ccccc43)nn2C)nn1C (stereo unspecified) | 7.83 |
| O=C(O)c1n[nH]nc1Cl | > 100 |
| C=C(C)C(CC=C(C)C)CC12CC(CC=C(C)C)C(C)(C)C(CC=C(C)C)(C(=O)C(Cc3ccc(O)c(O)c3)=C1O)C2=O (stereo unspecified) | > 100 |
| NC(Cc1cccc([N+](=O)[O-])c1)C(=O)O (stereo unspecified) | > 100 |
| CCC(=O)NC(Nc1cccc(F)c1C)(C(F)(F)F)C(F)(F)F | > 100 |
| CCCCCN=Cc1c(O)c(O)c(C(C)C)c2cc(C)c(-c3c(C)cc4c(C(C)C)c(O)c(O)c(C=NCCCCC)c4c3O)c(O)c12 | 19.8 |
| N#C/C(C(=O)Nc1ccccc1)=C(/N)N1CCOCC1 | > 100 |
| O/N=C1/COC(C(F)(F)F)(C(F)(F)F)C1 | > 100 |
| O=c1[nH]c(-c2ccc3ccccc3c2)nc2ccccc12 | > 100 |
| CS(=O)(=O)Nc1ccc(N2Cc3cnc4ccc5[nH]ccc2c5c34)cc1 | > 100 |
| COc1ccc(C(=O)Sc2c(-c3ccccc3)c(=O)n(-c3ccccc3)c(=S)n2-c2ccccc2)cc1 | > 100 |
| CCc1nc(N)nc(N)c1-c1ccc(Cl)c(Cl)c1 | > 100 |
| COCCOCc1nc(C#N)c(N)o1 | > 100 |
| CC1=C(C#N)C(C#N)(C#N)C(NN(C)C)C1 (stereo unspecified) | 31.8 |
| CN1C(=O)N/C(=C\c2ccc(S(=O)(=O)NN)cc2)C1=O | > 100 |
| COc1nc(C(=O)NNC(=O)c2nc(OC)c3ccccc3c2-c2ccccc2)c(-c2ccccc2)c2ccccc12 | > 100 |
| CCSc1n/c(=C\c2ccco2)c2nnnn12 | > 100 |
| CC(=O)OCc1cc(CCC(=O)NCCNc2c3ccccc3nc3ccccc23)cc(COC(C)=O)c1O[Si](C)(C)C(C)(C)C | 15.4 |
| COc1cc(Nc2cnc3cc(F)c(F)cc3n2)cc(OC)c1OC | > 100 |
| Cc1nc2ccccc2c(=O)n1NC(=O)c1ccc(CS)cc1 | 63.7 |
| COc1ccc2nc3ccc(OC)cc3c(S(=O)CCCl)c2c1 (stereo unspecified) | 37.3 |
| CC1(CCCO)CCCCCC(C)(CCCO)C1=O (stereo unspecified) | > 100 |

Tested on: LOX IMVI melanoma
Test: NCI tumour cell line growth inhibition, 48 h

| Compound | TGI [µM] |
| --- | --- |
| O=Cc1ccc2c(c1)CC1(C2)Cc2ccc3c(c2C1)CCC3 (stereo unspecified) | 15.9 |
| CC(=O)Nc1cc(C(=O)Nc2cc(C(=O)N3CC(CCl)c4c3cc(N)c3ccccc43)nn2C)nn1C (stereo unspecified) | 1.07 |
| O=C(O)c1n[nH]nc1Cl | > 100 |
| C=C(C)C(CC=C(C)C)CC12CC(CC=C(C)C)C(C)(C)C(CC=C(C)C)(C(=O)C(Cc3ccc(O)c(O)c3)=C1O)C2=O (stereo unspecified) | > 100 |
| NC(Cc1cccc([N+](=O)[O-])c1)C(=O)O (stereo unspecified) | > 100 |
| CCC(=O)NC(Nc1cccc(F)c1C)(C(F)(F)F)C(F)(F)F | > 100 |
| CCCCCN=Cc1c(O)c(O)c(C(C)C)c2cc(C)c(-c3c(C)cc4c(C(C)C)c(O)c(O)c(C=NCCCCC)c4c3O)c(O)c12 | 16.7 |
| N#C/C(C(=O)Nc1ccccc1)=C(/N)N1CCOCC1 | > 100 |
| O/N=C1/COC(C(F)(F)F)(C(F)(F)F)C1 | > 100 |
| O=c1[nH]c(-c2ccc3ccccc3c2)nc2ccccc12 | > 100 |
| CS(=O)(=O)Nc1ccc(N2Cc3cnc4ccc5[nH]ccc2c5c34)cc1 | 28.2 |
| COc1ccc(C(=O)Sc2c(-c3ccccc3)c(=O)n(-c3ccccc3)c(=S)n2-c2ccccc2)cc1 | > 100 |
| CCc1nc(N)nc(N)c1-c1ccc(Cl)c(Cl)c1 | > 100 |
| COCCOCc1nc(C#N)c(N)o1 | > 100 |
| CC1=C(C#N)C(C#N)(C#N)C(NN(C)C)C1 (stereo unspecified) | 29.7 |
| CN1C(=O)N/C(=C\c2ccc(S(=O)(=O)NN)cc2)C1=O | > 100 |
| CCSc1n/c(=C\c2ccco2)c2nnnn12 | > 100 |
| CC(=O)OCc1cc(CCC(=O)NCCNc2c3ccccc3nc3ccccc23)cc(COC(C)=O)c1O[Si](C)(C)C(C)(C)C | 3.58 |
| COc1cc(Nc2cnc3cc(F)c(F)cc3n2)cc(OC)c1OC | > 100 |
| Cc1nc2ccccc2c(=O)n1NC(=O)c1ccc(CS)cc1 | 0.401 |
| COc1ccc2nc3ccc(OC)cc3c(S(=O)CCCl)c2c1 (stereo unspecified) | 6.81 |
| CNc1ccc(OC)cc1S(=O)(=O)c1ccccc1[N+](=O)[O-] | > 100 |
| CC1(CCCO)CCCCCC(C)(CCCO)C1=O (stereo unspecified) | > 100 |

Tested on: MCF7 breast
Test: NCI tumour cell line growth inhibition, 48 h

| Compound | TGI [µM] |
| --- | --- |
| O=Cc1ccc2c(c1)CC1(C2)Cc2ccc3c(c2C1)CCC3 (stereo unspecified) | 22.8 |
| CC(=O)Nc1cc(C(=O)Nc2cc(C(=O)N3CC(CCl)c4c3cc(N)c3ccccc43)nn2C)nn1C (stereo unspecified) | > 66.5 |
| O=C(O)c1n[nH]nc1Cl | > 100 |
| C=C(C)C(CC=C(C)C)CC12CC(CC=C(C)C)C(C)(C)C(CC=C(C)C)(C(=O)C(Cc3ccc(O)c(O)c3)=C1O)C2=O (stereo unspecified) | > 100 |
| NC(Cc1cccc([N+](=O)[O-])c1)C(=O)O (stereo unspecified) | > 100 |
| CCC(=O)NC(Nc1cccc(F)c1C)(C(F)(F)F)C(F)(F)F | > 100 |
| CCCCCN=Cc1c(O)c(O)c(C(C)C)c2cc(C)c(-c3c(C)cc4c(C(C)C)c(O)c(O)c(C=NCCCCC)c4c3O)c(O)c12 | 27.2 |
| Clc1c(Cl)c(Cl)c2nn(C3CCCO3)nc2c1Cl (stereo unspecified) | > 100 |
| N#C/C(C(=O)Nc1ccccc1)=C(/N)N1CCOCC1 | > 100 |
| O/N=C1/COC(C(F)(F)F)(C(F)(F)F)C1 | > 100 |
| O=c1[nH]c(-c2ccc3ccccc3c2)nc2ccccc12 | > 100 |
| CS(=O)(=O)Nc1ccc(N2Cc3cnc4ccc5[nH]ccc2c5c34)cc1 | > 100 |
| COc1ccc(C(=O)Sc2c(-c3ccccc3)c(=O)n(-c3ccccc3)c(=S)n2-c2ccccc2)cc1 | > 100 |
| CCc1nc(N)nc(N)c1-c1ccc(Cl)c(Cl)c1 | > 100 |
| COCCOCc1nc(C#N)c(N)o1 | > 100 |
| CC1=C(C#N)C(C#N)(C#N)C(NN(C)C)C1 (stereo unspecified) | 77.3 |
| CN1C(=O)N/C(=C\c2ccc(S(=O)(=O)NN)cc2)C1=O | > 100 |
| COc1nc(C(=O)NNC(=O)c2nc(OC)c3ccccc3c2-c2ccccc2)c(-c2ccccc2)c2ccccc12 | > 100 |
| CCSc1n/c(=C\c2ccco2)c2nnnn12 | > 100 |
| CC(=O)OCc1cc(CCC(=O)NCCNc2c3ccccc3nc3ccccc23)cc(COC(C)=O)c1O[Si](C)(C)C(C)(C)C | 4.57 |
| COc1cc(Nc2cnc3cc(F)c(F)cc3n2)cc(OC)c1OC | > 100 |
| Cc1nc2ccccc2c(=O)n1NC(=O)c1ccc(CS)cc1 | 26.2 |
| COc1ccc2nc3ccc(OC)cc3c(S(=O)CCCl)c2c1 (stereo unspecified) | > 21.4 |
| CNc1ccc(OC)cc1S(=O)(=O)c1ccccc1[N+](=O)[O-] | > 100 |
| CC1(CCCO)CCCCCC(C)(CCCO)C1=O (stereo unspecified) | > 100 |

Tested on: MDA-MB-435
Test: NCI tumour cell line growth inhibition, 48 h

| Compound | TGI [µM] |
| --- | --- |
| O=Cc1ccc2c(c1)CC1(C2)Cc2ccc3c(c2C1)CCC3 (stereo unspecified) | 7.4 |
| CC(=O)Nc1cc(C(=O)Nc2cc(C(=O)N3CC(CCl)c4c3cc(N)c3ccccc43)nn2C)nn1C (stereo unspecified) | 0.281 |
| O=C(O)c1n[nH]nc1Cl | > 100 |
| C=C(C)C(CC=C(C)C)CC12CC(CC=C(C)C)C(C)(C)C(CC=C(C)C)(C(=O)C(Cc3ccc(O)c(O)c3)=C1O)C2=O (stereo unspecified) | > 100 |
| NC(Cc1cccc([N+](=O)[O-])c1)C(=O)O (stereo unspecified) | > 100 |
| CCC(=O)NC(Nc1cccc(F)c1C)(C(F)(F)F)C(F)(F)F | > 100 |
| CCCCCN=Cc1c(O)c(O)c(C(C)C)c2cc(C)c(-c3c(C)cc4c(C(C)C)c(O)c(O)c(C=NCCCCC)c4c3O)c(O)c12 | 17.8 |
| Clc1c(Cl)c(Cl)c2nn(C3CCCO3)nc2c1Cl (stereo unspecified) | > 100 |
| N#C/C(C(=O)Nc1ccccc1)=C(/N)N1CCOCC1 | > 100 |
| O/N=C1/COC(C(F)(F)F)(C(F)(F)F)C1 | > 100 |
| O=c1[nH]c(-c2ccc3ccccc3c2)nc2ccccc12 | > 100 |
| CS(=O)(=O)Nc1ccc(N2Cc3cnc4ccc5[nH]ccc2c5c34)cc1 | 31.5 |
| COc1ccc(C(=O)Sc2c(-c3ccccc3)c(=O)n(-c3ccccc3)c(=S)n2-c2ccccc2)cc1 | > 100 |
| CCc1nc(N)nc(N)c1-c1ccc(Cl)c(Cl)c1 | > 100 |
| COCCOCc1nc(C#N)c(N)o1 | > 100 |
| CC1=C(C#N)C(C#N)(C#N)C(NN(C)C)C1 (stereo unspecified) | 75 |
| CN1C(=O)N/C(=C\c2ccc(S(=O)(=O)NN)cc2)C1=O | > 100 |
| COc1nc(C(=O)NNC(=O)c2nc(OC)c3ccccc3c2-c2ccccc2)c(-c2ccccc2)c2ccccc12 | > 100 |

— PubChem BioAssay (NCI)
